Assay results as given in patent US8916702B2 (priority 2012, dated 2014).

Tested on: HCV pseudoparticles (genotype 1a HCV E1 and E2 envelope, H77C isolate)
Assay: microbe, parasite or virus in culture
Type: cell-based
Details: HCV pseudoparticles (genotype 1a, H77C) in Huh7 cells; average of duplicate; luciferase 2 days after infection

Row | Compound | EC50 [nM]
1 | COC(=O)[C@H](CCNC(=O)C(=O)Nc1ccc(C)cc1)NC(=O)c1ccc(Nc2nc(NC3(c4ccc(Cl)cc4)CC3)nc(OCC(F)(F)F)n2)cc1 [Compound 3217] | 0.087

Same assay, conditions: Hepatitis C virus, Huh-7, 48 h, HCV pseudoparticles (genotype 1a, H77C) in Huh7 cells; average of duplicate; luciferase 2 days after infection

Row | Compound | EC50 [nM]
2 | COC(=O)[C@H](CCNC(=O)C(=O)Nc1ccc(N2CCC(C(C)=O)CC2)cc1)NC(=O)c1ccc(Nc2nc(NC3(c4ccc(Cl)cc4)CC3)nc(OCC(F)(F)F)n2)cc1 [Compound 3303] | 5.59
3 | COC(=O)[C@@H](CCNC(=O)C(=O)Nc1cccc(OC(F)(F)F)c1)NC(=O)c1ccc(Nc2nc(NC3(c4ccc(Cl)cc4)CC3)nc(OCC(F)(F)F)n2)cc1 [Compound 3577] | 0.16

Same assay, conditions: Hepatitis C virus, Huh-7, 48 h, read-out: Activity (EC50 class), HCV pseudoparticle infection of Huh7 cells, luciferase 2 days after infection; EC50 expressed as class A/B

Row | Compound | EC50 [nM]
4 | CC(C)(CNC(=O)C(=O)Nc1cccc(-c2ccc(Cl)cc2)c1)CNC(=O)c1ccc(Nc2nc(NC3(c4ccc(Cl)cc4)CC3)nc(OCC(F)(F)F)n2)cc1 [Compound 1586] | 0.01 to 10
5 | COC(=O)[C@H](CNC(=O)C(=O)NCC1CCc2ccccc21)NC(=O)c1ccc(Nc2nc(NC3(c4ccc(Cl)cc4)CC3)nc(OCC(F)(F)F)n2)cc1 (stereo partly shown) [Compound 1303] | 0.01 to 10
6 | COC(=O)[C@H](CCNC(=O)C(=O)NC1CCCCC1)NC(=O)c1ccc(Nc2nc(NC3(c4ccc(Cl)cc4)CC3)nc(OCC(F)(F)F)n2)cc1 [Compound 1140] | 0.01 to 10
7 | O=C(NCC[C@H](NC(=O)c1ccc(Nc2nc(NC3(c4ccc(Cl)cc4)CC3)nc(OCC(F)(F)F)n2)cc1)C(=O)O)C(=O)Nc1cc[nH]n1 [Compound 1265] | 0.01 to 10
8 | CC1(C)[C@H]2CCC(CNC(=O)C(=O)NC[C@H](NC(=O)c3ccc(Nc4nc(NC5(c6ccc(Cl)cc6)CC5)nc(OCC(F)(F)F)n4)cc3)C(=O)O)[C@@H]1C2 (stereo partly shown) [Compound 1473] | 0.01 to 10
9 | COC(=O)[C@H](CNC(=O)C(=O)NCCn1ccnc1C)NC(=O)c1ccc(Nc2nc(NC3(c4ccc(Cl)cc4)CC3)nc(OCC(F)(F)F)n2)cc1 [Compound 1301] | 0.01 to 10
10 | CCC(CC)NC(=O)C(=O)NCCC(NC(=O)c1ccc(Nc2nc(NC3(c4ccc(Cl)cc4)CC3)nc(OCC(F)(F)F)n2)cc1)C(=O)OC (stereo not shown) [Compound 1106] | 0.01 to 10
11 | CCOC(=O)[C@H](CCCNC(=O)C(=O)NC)NC(=O)c1ccc(Nc2nc(NC3(c4ccc(Cl)cc4)CC3)nc(OCC(F)(F)F)n2)cc1 [Compound 1030, (S)-ethyl 2-(4-(4-(1-(4-chlorophenyl)cyclopropylamino)-6-(2,2,2-trifluoroethoxy)-1,3,5-triazin-2-ylamino)benzamido)-5-(2-(methylamino)-2-oxoacetamido)pentanoate] | 0.01 to 10
12 | CC(C)(CNC(=O)C(=O)Nc1cccc(Cl)c1)CNC(=O)c1ccc(Nc2nc(NC3(c4ccc(Cl)cc4)CC3)nc(OCC(F)(F)F)n2)cc1 [Compound 1561] | 0.01 to 10
13 | COC(=O)[C@H](CCNC(=O)C(=O)NCCc1ccncc1)NC(=O)c1ccc(Nc2nc(NC3(c4ccc(Cl)cc4)CC3)nc(OCC(F)(F)F)n2)cc1 [Compound 1311] | 0.01 to 10

Same assay, conditions: Hepatitis C virus, Huh-7, 48 h, read-out: Activity (EC50 class), HCV pseudoparticles, Huh7 cells, luciferase 2 days after infection; average of duplicates

Row | Compound | EC50 [nM]
14 | COC(=O)[C@H](CNC(=O)C(=O)Nc1cccc(C(=O)c2ccccc2)c1)NC(=O)c1ccc(Nc2nc(NC3(c4ccc(Cl)cc4)CC3)nc(OCC(F)(F)F)n2)cc1 [Compound 3692] | 0.01 to 10
15 | CC(C)(CNC(=O)C(=O)Nc1nc2c(O)cccc2s1)CNC(=O)c1ccc(Nc2nc(NC3(c4ccc(Cl)cc4)CC3)nc(OCC(F)(F)F)n2)cc1 [Compound 3819] | 0.01 to 10
16 | Cc1nccc(-c2cccc(NC(=O)C(=O)NC[C@H](NC(=O)c3ccc(Nc4nc(NC5(c6ccc(Cl)cc6)CC5)nc(OCC(F)(F)F)n4)cc3)C(=O)O)c2)n1 [Compound 3756] | 0.01 to 10

Same assay, conditions: Hepatitis C virus, Huh-7, read-out: Activity (EC50 class), HCV pseudoparticles (genotype 1a, H77C) in Huh7 cells; EC50 expressed as class A/B

Row | Compound | EC50 [nM]
17 | COC(=O)[C@H](CCNC(=O)C(=O)Nc1ccc(N2CCC(C(C)=O)CC2)cc1)NC(=O)c1ccc(Nc2nc(NC3(c4ccc(Cl)cc4)CC3)nc(OCC(F)(F)F)n2)cc1 [Compound 3303] | 0.01 to 10
18 | COC(=O)[C@@H](CCNC(=O)C(=O)Nc1cccc(OC(F)(F)F)c1)NC(=O)c1ccc(Nc2nc(NC3(c4ccc(Cl)cc4)CC3)nc(OCC(F)(F)F)n2)cc1 [Compound 3577] | 0.01 to 10
19 | O=C(Nc1ccc(F)cc1F)C(=O)N(CCO)CCCNC(=O)c1ccc(Nc2nc(NC3(c4ccc(Cl)cc4)CC3)nc(OCC(F)(F)F)n2)cc1 [Compound 3503] | 0.01 to 10
20 | COC(=O)[C@H](CCNC(=O)C(=O)Nc1ccc(-n2ccc(C(F)(F)F)n2)cc1)NC(=O)c1ccc(Nc2nc(NC3(c4ccc(Cl)cc4)CC3)nc(OCC(F)(F)F)n2)cc1 [Compound 3127] | 0.01 to 10
21 | Cc1noc2ccc(NC(=O)C(=O)NCC(C)(C)CNC(=O)c3ccc(Nc4nc(NC5(c6ccc(Cl)cc6)CC5)nc(OCC(F)(F)F)n4)cc3)cc12 [Compound 3339] | 0.01 to 10

Same assay, conditions: read-out: Activity (EC50 class); HCV pseudoparticles (genotype 1a, H77C) in Huh7 cells; EC50 expressed as class A/B

Row | Compound | EC50 [nM]
22 | COC(=O)[C@H](CCNC(=O)C(=O)Nc1ccc(C)cc1)NC(=O)c1ccc(Nc2nc(NC3(c4ccc(Cl)cc4)CC3)nc(OCC(F)(F)F)n2)cc1 [Compound 3217] | 0.01 to 10
